Results as given in patent US9725465B2, “Biaryl acetamide compounds and methods of use thereof” (Ambit Biosciences Corporation, priority 2013, dated 2017).
pKd: −log10 of the molar value.

How the values were obtained:
KIT kinase = KIT kinase (Homo sapiens (Human), UniProt P10721); assay: Competition binding assay (Kd), KIT; conditions: competition binding
Description: In certain embodiments, competition binding assays were performed as described in Fabian et al., Nature Biotechnology 2005, 23, 329-336.
Competition binding assays used herein were developed, validated and performed as described in Fabian et al., Nature Biotechnology 2005, 23, 329-336. Kinases were produced as fusions to T7 phage (See, Fabian et al. or WO04/015142) or alternatively, the kinases were expressed in HEK-293 cells and subsequently tagged with DNA for PCR detection (See, WO08/005,310). […] The liganded beads were blocked with excess biotin and washed with blocking buffer (SeaBlock (Pierce), 1% BSA, 0.05% Tween 20, 1 mM DTT) to remove unbound ligand and to reduce non-specific binding. […] Test compounds were prepared as 100× stocks in DMSO and diluted into the aqueous environment. Kds were determined using an eleven point threefold serial dilutions. DMSO or control compounds were was added to control assays lacking a test compound. […] The kinase concentration in the eluates was measured by quantitative PCR. […]

FLT3 kinase = FLT3 kinase (Homo sapiens (Human), UniProt P36888); assay: Competition binding assay (Kd), FLT3; conditions: competition binding
FLT3 kinase, sequence (P36888 27-993): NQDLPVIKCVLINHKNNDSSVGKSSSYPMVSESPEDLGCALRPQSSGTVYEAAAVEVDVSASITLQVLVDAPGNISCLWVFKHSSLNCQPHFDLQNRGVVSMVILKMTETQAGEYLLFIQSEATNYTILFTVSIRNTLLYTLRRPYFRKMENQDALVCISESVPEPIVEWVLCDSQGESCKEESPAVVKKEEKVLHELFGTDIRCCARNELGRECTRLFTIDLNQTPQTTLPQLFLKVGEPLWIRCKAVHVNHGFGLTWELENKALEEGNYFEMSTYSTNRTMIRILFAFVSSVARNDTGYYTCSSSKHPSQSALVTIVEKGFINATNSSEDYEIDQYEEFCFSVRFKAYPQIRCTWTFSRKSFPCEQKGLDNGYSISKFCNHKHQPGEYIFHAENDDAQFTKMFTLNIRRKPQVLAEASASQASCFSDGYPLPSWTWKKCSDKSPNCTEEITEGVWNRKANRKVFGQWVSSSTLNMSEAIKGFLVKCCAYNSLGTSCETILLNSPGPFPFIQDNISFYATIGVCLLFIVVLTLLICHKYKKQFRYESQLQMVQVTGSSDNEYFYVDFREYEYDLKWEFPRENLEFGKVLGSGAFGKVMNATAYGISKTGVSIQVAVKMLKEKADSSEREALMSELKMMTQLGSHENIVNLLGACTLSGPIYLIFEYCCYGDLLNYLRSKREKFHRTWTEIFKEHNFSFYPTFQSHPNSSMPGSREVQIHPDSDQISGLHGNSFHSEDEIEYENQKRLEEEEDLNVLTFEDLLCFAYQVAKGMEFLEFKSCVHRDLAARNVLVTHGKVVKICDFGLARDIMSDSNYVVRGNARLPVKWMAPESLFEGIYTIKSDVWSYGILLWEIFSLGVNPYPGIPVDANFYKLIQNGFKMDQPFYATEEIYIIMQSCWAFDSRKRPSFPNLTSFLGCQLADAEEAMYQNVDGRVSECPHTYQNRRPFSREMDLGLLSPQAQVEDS

KIT kinase, sequence (P10721 26-976): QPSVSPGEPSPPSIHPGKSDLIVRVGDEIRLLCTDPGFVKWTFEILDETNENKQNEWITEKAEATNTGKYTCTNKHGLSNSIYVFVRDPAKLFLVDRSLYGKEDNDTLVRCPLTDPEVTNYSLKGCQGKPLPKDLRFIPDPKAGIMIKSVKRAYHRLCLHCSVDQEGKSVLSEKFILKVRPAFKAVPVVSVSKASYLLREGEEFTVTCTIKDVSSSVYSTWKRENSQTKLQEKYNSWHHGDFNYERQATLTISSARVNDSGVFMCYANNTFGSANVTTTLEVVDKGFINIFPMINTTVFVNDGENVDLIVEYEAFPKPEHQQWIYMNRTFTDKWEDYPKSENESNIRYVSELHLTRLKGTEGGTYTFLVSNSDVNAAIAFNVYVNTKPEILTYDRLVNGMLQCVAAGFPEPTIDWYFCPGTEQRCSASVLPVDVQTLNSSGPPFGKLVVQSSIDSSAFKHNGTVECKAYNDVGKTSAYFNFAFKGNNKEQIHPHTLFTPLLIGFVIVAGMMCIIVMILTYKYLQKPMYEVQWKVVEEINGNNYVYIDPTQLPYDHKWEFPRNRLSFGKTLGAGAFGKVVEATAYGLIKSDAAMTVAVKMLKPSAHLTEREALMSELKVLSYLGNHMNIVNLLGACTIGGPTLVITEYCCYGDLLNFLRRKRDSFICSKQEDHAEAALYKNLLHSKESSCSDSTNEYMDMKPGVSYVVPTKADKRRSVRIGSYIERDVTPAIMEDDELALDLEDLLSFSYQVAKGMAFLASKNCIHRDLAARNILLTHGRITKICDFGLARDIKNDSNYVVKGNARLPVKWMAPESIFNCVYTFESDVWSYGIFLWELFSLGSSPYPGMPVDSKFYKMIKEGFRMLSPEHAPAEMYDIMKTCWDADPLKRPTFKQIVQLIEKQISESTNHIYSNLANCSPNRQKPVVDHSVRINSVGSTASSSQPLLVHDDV

| SMILES | pKd (KIT kinase) | pKd (FLT3 kinase) |
| --- | --- | --- |
| COc1cc2ncc(-c3ccc(CC(=O)Nc4cc(C(C)(C)C(F)(F)F)on4)c(F)c3)cc2cc1OCCN1CCC(F)(F)CC1 [Example 207, 2-[4-[6-[2-(4,4-difluoro-1-piperidyl)ethoxy]-7-methoxy-3-quinolyl]-2-fluoro-phenyl]-N-[5-(2,2,2-trifluoro-1,1-dimethyl-ethyl)isoxazol-3-yl]acetamide] | 7.30 to 7.70 | > 8.30 |
| COc1cc2ncc(-c3ccc(CC(=O)Nc4cc(C5(C(F)(F)F)CC5)on4)c(F)c3)nc2cc1OCCCNC(C)=O [Example 214, 2-[4-[7-(3-acetamidopropoxy)-6-methoxy-quinoxalin-2-yl]-2-fluoro-phenyl]-N-[5-[1-(trifluoromethyl)cyclo-propyl]isoxazol-3-yl]acetamide] | > 8.30 | > 8.30 |
| COc1cc2nc(-c3ccc(CC(=O)Nc4cc(C(C)(C)C)on4)cc3)cnc2cc1OCCN1CCOCC1 [Example 215, N-(5-tert-butylisoxazol-3-yl)-2-[4-[7-methoxy-6-(2-morpholino-ethoxy)quinoxalin-2-yl]phenyl]acetamide] | > 8.30 | > 8.30 |
| COc1cc2nc(-c3ccc(CC(=O)Nc4cc(C5(C(F)(F)F)CC5)on4)c(F)c3)cnc2cc1OCCN1CCS(=O)(=O)CC1 [Example 216, 2-[4-[6-[2-(1,1-dioxo-1,4-thiazinan-4-yl)ethoxy]-7-methoxy-quinoxalin-2-yl]-2-fluoro-phenyl]-N-[5-[1-(trifluoromethyl)cyclo-propyl]isoxazol-3-yl]acetamide] | > 8.30 | > 8.30 |
| COc1cc2ncc(-c3ccc(CC(=O)Nc4cc(C(C)(C)C(F)(F)F)on4)cc3F)nc2cc1OC [Example 217, 2-[4-(6,7-dimethoxyquinoxalin-2-yl)-3-fluoro-phenyl]-N-[5-(2,2,2-trifluoro-1,1-dimethyl-ethyl)isoxazol-3-yl]acetamide] | > 8.30 | > 8.30 |
| COc1cc2ncc(-c3cc(F)c(CC(=O)Nc4cc(C5(C(F)(F)F)CC5)on4)cc3F)nc2cc1OC [Example 218, 2-[4-(6,7-dimethoxyquinoxalin-2-yl)-2,5-difluoro-phenyl]-N-[5-[1-(trifluoro-methyl)cyclopropyl]isoxazol-3-yl]acetamide] | > 8.30 | > 8.30 |
| COc1cc2ncc(-c3cc(F)c(CC(=O)Nc4cc(C(C)(C)C(F)(F)F)on4)cc3F)nc2cc1OC [Example 219, 2-[4-(6,7-dimethoxyquinoxalin-2-yl)-2,5-difluoro-phenyl]-N-[5-(2,2,2-trifluoro-1,1-dimethyl-ethyl)isoxazol-3-yl]acetamide] | > 8.30 | > 8.30 |
| CC(=O)NCCOc1cc2ncc(-c3ccc(CC(=O)Nc4cc(C(C)(C)C(F)(F)F)on4)c(F)c3)nc2cc1OCCNC(C)=O [Example 220, 2-[4-[6,7-bis(2-acetamidoethoxy)quinoxalin-2-yl]-2-fluoro-phenyl]-N-[5-(2,2,2-trifluoro-1,1-dimethyl-ethyl)isoxazol-3-yl]acetamide] | > 8.30 | > 8.30 |
| CC(=O)N(C)CCOc1cc2ncc(-c3ccc(CC(=O)Nc4cc(C(C)(C)C(F)(F)F)on4)c(F)c3)nc2cc1OCCN(C)C(C)=O [Example 221, 2-[4-[6,7-bis[2-[acetyl(methyl)amino]ethoxy]quinoxalin-2-yl]-2-fluoro-phenyl]-N-[5-(2,2,2-trifluoro-1,1-dimethyl-ethyl)isoxazol-3-yl]acetamide] | > 8.30 | > 8.30 |
| COc1cc2nc(-c3ccc(CC(=O)Nc4cc(C5(C(F)(F)F)CC5)on4)c(F)c3)cnc2cc1OCCCS(C)(=O)=O [Example 222, 2-[2-fluoro-4-[7-methoxy-6-(3-methylsulfonyl-propoxy)quinoxalin-2-yl]phenyl]-N-[5-[1-(trifluoromethyl)cyclo-propyl]isoxazol-3-yl]acetamide] | > 8.30 | > 8.30 |
| COc1cc2nc(-c3ccc(CC(=O)Nc4cc(C5(C(F)(F)F)CC5)on4)c(F)c3)cnc2cc1OCCN1CC2CC(C1)O2 [Example 223, 2-[2-fluoro-4-[7-methoxy-6-[2-(6-oxa-3-azabicyclo[3.1.1]heptan-3-yl)ethoxy]quinoxalin-2-yl]phenyl]-N-[5-[1-(trifluoromethyl)cyclo-propyl]isoxazol-3-yl]acetamide] | > 8.30 | > 8.30 |
| COc1cc2nc(-c3ccc(CC(=O)Nc4cc(C5(C(F)(F)F)CC5)on4)c(F)c3)cnc2cc1OCCN1CC2CC1CO2 (stereo not drawn) [Example 224, 2-[2-fluoro-4-[7-methoxy-6-[2-(2-oxa-5-azabicyclo[2.2.1]heptan-5-yl)ethoxy]quinoxalin-2-yl]phenyl]-N-[5-[1-(trifluoromethyl)cyclo-propyl]isoxazol-3-yl]acetamide] | > 8.30 | > 8.30 |
| COc1cc2ncc(-c3cc(F)c(CC(=O)Nc4cc(C(C)(C)C(F)(F)F)on4)c(F)c3)nc2cc1OC [Example 225, 2-[4-(6,7-dimethoxyquinoxalin-2-yl)-2,6-difluoro-phenyl]-N-[5-(2,2,2-trifluoro-1,1-dimethyl-ethyl)isoxazol-3-yl]acetamide] | > 8.30 | > 8.30 |
| COc1cc2ncc(-c3cc(F)c(CC(=O)Nc4cc(C5(C(F)(F)F)CC5)on4)c(F)c3)nc2cc1OC [Example 226, 2-[4-(6,7-dimethoxyquinoxalin-2-yl)-2,6-difluoro-phenyl]-N-[5-[1-(trifluoromethyl)cyclo-propyl]isoxazol-3-yl]acetamide] | > 8.30 | > 8.30 |
| COc1cc2ncc(-c3ccc(CC(=O)Nc4cc(C5(C(F)(F)F)CC5)on4)c(F)c3)nc2cc1OCCCN [Example 227, 2-[4-[7-(3-aminopropoxy)-6-methoxy-quinoxalin-2-yl]-2-fluoro-phenyl]-N-[5-[1-(trifluoromethyl)cyclo-propyl]isoxazol-3-yl]acetamide] | > 8.30 | > 8.30 |
| COc1cc2nc(-c3ccc(CC(=O)Nc4cc(C5(C(F)(F)F)CC5)nn4C)c(F)c3)cnc2cc1OCCN1CCOCC1 [Example 228, 2-[2-fluoro-4-[7-methoxy-6-(2-morpholino-ethoxy)quinoxalin-2-yl]phenyl]-N-[2-methyl-5-[1-(trifluoromethyl)cyclo-propyl]pyrazol-3-yl]acetamide] | > 8.30 | > 8.30 |

Continued, values first:

| pKd (KIT kinase) | pKd (FLT3 kinase) | SMILES |
| --- | --- | --- |
| > 8.30 | > 8.30 | COc1cc2ncc(-c3ccc(CC(=O)Nc4cc(C(C)(C)C(F)(F)F)on4)c(F)c3)cc2cc1OCCNC(C)=O [Example 205, 2-[4-[6-(2-acetamidoethoxy)-7-methoxy-3-quinolyl]-2-fluoro-phenyl]-N-[5-(2,2,2-trifluoro-1,1-dimethyl-ethyl)isoxazol-3-yl]acetamide] |
| > 8.30 | > 8.30 | COc1cc2ncc(-c3ccc(CC(=O)Nc4cc(C(C)(C)C(F)(F)F)on4)c(F)c3)cc2cc1OCCN1CCC(O)CC1 [Example 206, 2-[2-fluoro-4-[6-[2-(4-hydroxy-1-piperidyl)ethoxy]-7-methoxy-3-quinolyl]phenyl]-N-[5-(2,2,2-trifluoro-1,1-dimethyl-ethyl)isoxazol-3-yl]acetamide] |
| > 8.30 | > 8.30 | COc1cc2nc(-c3ccc(CC(=O)Nc4cc(C5(C(F)(F)F)CC5)on4)c(F)c3)cnc2cc1OC[C@@H](C)O [Example 208, 2-[2-fluoro-4-[6-[(2R)-2-hydroxypropoxy]-7-methoxy-quinoxalin-2-yl]phenyl]-N-[5-[1-(trifluoro-methyl)cyclopropyl]isoxazol-3-yl]acetamide] |
| > 8.30 | > 8.30 | COc1cc2nc(-c3ccc(CC(=O)Nc4cc(C(C)(C)C(F)(F)F)on4)c(F)c3)cnc2cc1OCCCN1CCOCC1 [Example 209, 2-[2-fluoro-4-[7-methoxy-6-(3-morpholino-propoxy)quinoxalin-2-yl]phenyl]-N-[5-(2,2,2-trifluoro-1,1-dimethyl-ethyl)isoxazol-3-yl]acetamide] |
| > 8.30 | > 8.30 | COc1cc2nc(-c3ccc(CC(=O)Nc4cc(C(C)(C)C(F)(F)F)on4)c(F)c3)cnc2cc1OCCn1cncn1 [Example 210, 2-[2-fluoro-4-[7-methoxy-6-[2-(1,2,4-triazol-1-yl)ethoxy]quinoxalin-2-yl]phenyl]-N-[5-(2,2,2-trifluoro-1,1-dimethyl-ethyl)isoxazol-3-yl]acetamide] |
| > 8.30 | > 8.30 | COc1cc2nc(-c3ccc(CC(=O)Nc4cc(C(C)(C)C(F)(F)F)on4)c(F)c3)cnc2cc1OCCn1cnnc1 [Example 211, 2-[2-fluoro-4-[7-methoxy-6-[2-(1,2,4-triazol-4-yl)ethoxy]quinoxalin-2-yl]phenyl]-N-[5-(2,2,2-trifluoro-1,1-dimethyl-ethyl)isoxazol-3-yl]acetamide] |
| > 8.30 | > 8.30 | COc1cc2nc(-c3ccc(CC(=O)Nc4cc(C5(C(F)(F)F)CC5)on4)c(F)c3)cnc2cc1OCCCN1CCOCC1 [Example 212, 2-[2-fluoro-4-[7-methoxy-6-(3-morpholino-propoxy)quinoxalin-2-yl]phenyl]-N-[5-[1-(trifluoro-methyl)cyclopropyl]isoxazol-3-yl]acetamide] |
| > 8.30 | > 8.30 | COc1cc2ncc(-c3ccc(CC(=O)Nc4cc(C5(C(F)(F)F)CC5)on4)c(F)c3)nc2cc1OCCCN1CCOCC1 [Example 213, 2-[2-fluoro-4-[6-methoxy-7-(3-morpholino-propoxy)quinoxalin-2-yl]phenyl]-N-[5-[1-(trifluoro-methyl)cyclopropyl]isoxazol-3-yl]acetamide] |
